Measured values from PMC11256175 (Bioengineering & Translational Medicine, 2024).
≈ marks a conversion by molar mass, not a printed value. Entries after “also recorded” stand apart in the source; their conditions may differ. Read-outs that look alike come from different tables or passages of the source. Each block holds one compound with its values, some of them ahead of it.

Tests used:
[1] = Equilibrium solubility of EV‐P in injectable oily vehicles (HPLC); type: physicochemical; conditions: for solubility at 3 days: 25°C, stored over 3 days, mean ± SD (n = 3)
Experimental: […] […] […] […] The EV‐P concentration in the sample was analyzed using Waters HPLC system (Model 515 pump, Model 486 UV‐VIS detector, and Model 717 plus autosampler, Waters, Milford, MA, USA) equipped with a reversed‐phase C18 column (4.6 × 150 mm, 5 μm, Shiseido). The mobile phase for EV‐P analysis consisted of 2‐propanol and deionized distilled water at a volume ratio of 6:4. The flow rate of the mobile phase and detection wavelength were 1.0 mL/min and 253 nm, respectively, and the elution time of EV‐P was 5.3 min. The calibration curve was linear in the range of 1–100 μg/mL and the limit of detection (LOD) and limit of quantitation (LOQ) values were calculated as 0.5 μg/mL and 1.5 μg/mL, respectively.

[2] = Dispersibility of EV‐P particles in oily vehicles (visual); type: physicochemical; conditions: after 3 days storage at 25°C, EV‐P 9.0 mg/mL
Experimental: Pulverized EV‐P powder (5 mg as EV) was added to injectable oil vehicles (1 mL) in an Eppendorf tube. The mixture was then vortexed for 10 min using a multi‐vortex (Vortex Genie 2, Scientific Industries, Chicago, IL, USA) and then shaken for 3 h at 25°C in a shaking incubator (model BF‐60SIRL, Bio Free, Seoul, Korea). Then, the dispersibility of EV‐P particles in different oily vehicles was visually evaluated. […] The EV‐P concentration in the sample was analyzed using Waters HPLC system (Model 515 pump, Model 486 UV‐VIS detector, and Model 717 plus autosampler, Waters, Milford, MA, USA) equipped with a reversed‐phase C18 column (4.6 × 150 mm, 5 μm, Shiseido). The mobile phase for EV‐P analysis consisted of 2‐propanol and deionized distilled water at a volume ratio of 6:4. The flow rate of the mobile phase and detection wavelength were 1.0 mL/min and 253 nm, respectively, and the elution time of EV‐P was 5.3 min. The calibration curve was linear in the range of 1–100 μg/mL and the limit of detection (LOD) and limit of quantitation (LOQ) values were calculated as 0.5 μg/mL and 1.5 μg/mL, respectively.

[3] = Solubility of EV‐P in phosphate buffer and dissolution medium; type: physicochemical
[4] = phosphate‐buffered saline [PBS], pH 7.4; cited from earlier work
[5] = design: method as in earlier work; conditions: mice and rats; cited from earlier work
[6] = design: method as in PMID 11672957; conditions: after SC or IM injection in pigs; cited from earlier work
[7] = design: method as in PMID 27067365; conditions: pretreatment and intermittent dosing of clodronate; cited from earlier work

- EV‐P dissolved in OS ([1]; OS designed using tricaprylin and Labrafac, EV‐P concentration of 9.0 mg/mL): less than 1.0 % (w/v)
- solubility at 3 days ([1]; in castor oil): 2100 µg/mL (≈ 4070 µM)
- solubility at 3 days ([1]; in peanut oil): 1900 µg/mL (≈ 3680 µM)
- solubility at 3 days ([1]; oil or lipid, thermodynamic from solid, in Labrafac PG): 110 ± 10 µg/mL (≈ 213 µM)
- solubility at 3 days ([1]; oil or lipid, thermodynamic from solid, in Miglyol 812): 620 ± 120 µg/mL (≈ 1200 µM)
- solubility at 3 days ([1]; oil or lipid, thermodynamic from solid, in castor oil): 2140 ± 70 µg/mL (≈ 4150 µM)
- solubility at 3 days ([1]; oil or lipid, thermodynamic from solid, in cotton seed oil): 980 ± 570 µg/mL (≈ 1900 µM)
- solubility at 3 days ([1]; oil or lipid, thermodynamic from solid, in oleic acid): 5900 ± 50 µg/mL (≈ 11400 µM)
- solubility at 3 days ([1]; oil or lipid, thermodynamic from solid, in peanut oil): 1950 ± 180 µg/mL (≈ 3780 µM)
- solubility at 3 days ([1]; oil or lipid, thermodynamic from solid, in soybean oil): 800 ± 130 µg/mL (≈ 1550 µM)
- solubility at 3 days ([1]; oil or lipid, thermodynamic from solid, in tricaprylin): 30 ± 10 µg/mL (≈ 58.2 µM)
- Dispersibility ([2]; in Labrafac PG): evenly dispersed
- Dispersibility ([2]; in Miglyol 812): Aggregated
- Dispersibility ([2]; in castor oil): Aggregated
- Dispersibility ([2]; in cotton seed oil): Aggregated
- Dispersibility ([2]; in oleic acid): Re‐dispersible
- Dispersibility ([2]; in peanut oil): Aggregated
- Dispersibility ([2]; in soybean oil): Aggregated
- solubility ([3]; isopropyl alcohol and distilled water (5:5, v/v) mixture, read-out: Solubility in dissolution medium): > 100 µg/mL
- solubility ([3]; phosphate buffer / aqueous media pH 7.4, read-out: Solubility in phosphate buffer (pH 7.4)): 1.1 µg/mL (≈ 2.13 µM)
Compound: C=C1[C@H](COC(=O)CCCCCCCCCCCCCCC)[C@@H](O)C[C@@H]1n1cnc2c(=O)[nH]c(N)nc21 [EV‐P, 2‐amino‐1,9‐dihydro‐9‐[(1S,3R,4S)‐4‐hydroxy‐3‐(hexadecanoyloxymethyl)‐2‐methylenecyclopentyl]‐6H‐purin‐6‐one]
- Dispersibility ([2]; in tricaprylin): evenly dispersed; also recorded: Re‐dispersible
- Aqueous solubility [4]: approximately 1.1 μg/mL

Compound: C=C1[C@H](CO)[C@@H](O)C[C@@H]1n1cnc2c(=O)[nH]c(N)nc21 [EV, entecavir]
- Oral doses with minimal acute toxicity [5]: up to 200 mg/kg

Compound: CCCCCCCCCCCCCC(=O)OC(C)C [isopropyl myristate]
- Elimination T 1/2 from injection site [6]: approximately 20 days

Compound: Cc1nc2n(c(=O)c1CCN1CCC(c3noc4cc(F)ccc34)CC1)CCCC2O (centres unmarked) [paliperidone]
- AUC after 1 day post‐dosing, times higher than IM injection with no treatment [7]: approximately 2.2 times
- C max, times higher than IM injection with no treatment [7]: 1.5 times
